Where “and” joins values, the source holds several entries; their conditions need not be identical. Equal values may be shown once.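 Briefly, cells in 96-well plates were exposed to five compound concentrations for 48 h, and endpoints were estimated by linear interpolation. GI50 = concentration required for 50% inhibition of growth. TGI denotes the concentration required for complete inhibition of growth.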
Experiments:
Test in all cases: NCI tumour cell line growth inhibition, 48 h
HCT-116 colon = test system: HCT-116 colon
SK-MEL-28 melanoma = test system: SK-MEL-28 melanoma
KM12 colon = test system: KM12 colon
HOP-62 NSCLC = test system: HOP-62 NSCLC
IGROV1 ovarian = test system: IGROV1 ovarian
SN12C renal = test system: SN12C renal
NCI-H522 lung = test system: NCI-H522 lung
EKVX NSCLC = test system: EKVX NSCLC
SNB-75 CNS = test system: SNB-75 CNS
OVCAR-8 ovarian = test system: OVCAR-8 ovarian
NCI-H226 lung = test system: NCI-H226 lung
UO-31 renal = test system: UO-31 renal
HL-60(TB) leukemia = test system: HL-60(TB) leukemia

SMILES	TGI (HCT-116 colon) [µM]	TGI (SK-MEL-28 melanoma) [µM]	TGI (KM12 colon) [µM]	TGI (HOP-62 NSCLC) [µM]	TGI (IGROV1 ovarian) [µM]	TGI (SN12C renal) [µM]	TGI (NCI-H522 lung)	TGI (EKVX NSCLC)	TGI (SNB-75 CNS)	TGI (OVCAR-8 ovarian) [µM]	TGI (NCI-H226 lung) [µM]	TGI (UO-31 renal) [µM]	TGI (HL-60(TB) leukemia) [µM]	GI50 (KM12 colon) [µM]	GI50 (IGROV1 ovarian) [µM]	GI50 (SN12C renal) [µM]	GI50 (NCI-H522 lung) [µM]	GI50 (EKVX NSCLC) [µM]	GI50 (SNB-75 CNS) [µM]	GI50 (OVCAR-8 ovarian) [µM]
Cn1c(=O)c(Cl)c(N=[N+]=[N-])c2ccccc21	> 100	> 100	> 100	> 100	> 100	> 100	> 100 µM	> 100 µM	> 100 µM	> 100	> 100	> 100								
CCN1CCC(O)(c2ccc(O)cc2)C(C(=O)c2ccc(O)cc2)C1 (configuration not stated)	54.9	31.7	45.4	> 100	44	42		51.1 µM	60.1 µM	> 100	61.9	36	> 100							
O=c1oc2ccc([N+](=O)[O-])cc2cc1Br	> 100	> 100	> 100	> 100	> 100	> 100	> 100 µM	> 100 µM		> 100	> 100	> 100	> 100							
CC1=C2C3OC(=O)C(C)C3CCC2(C)C=CC1=Nc1ccccc1 (configuration not stated)	> 100	> 100	> 100	> 100	> 100	> 100	> 100 µM	> 100 µM	> 100 µM	> 100	> 100	> 100	> 100							
CC(=O)Nc1ccc(Sc2nnc(NC(C)=O)s2)cc1	> 100	> 100	> 100	> 100	> 100	> 100	> 100 µM	> 100 µM	> 100 µM	> 100		> 100	> 100							
CCOC(=O)C(OP(=O)(OCC)OCC)C(F)(F)F (configuration not stated)	> 100	> 100	> 100	> 100		> 100	> 100 µM	> 100 µM	> 100 µM		> 100	> 100	> 100							
COC1C(O)C(C)OC(OC2CCC3(C)C(CCC4C3C(O)CC3(C)C(C5=CC(=O)OC5)CCC43O)C2)C1O (configuration not stated)	0.533	1.62	6.12	0.473	10.7	0.426	0.251 µM	0.536 µM	2.78 µM	1.67	2.39		0.665							
C=CCCCCCCCCC(=O)O	225	322	107	168	287	339	209 µM	255 µM	468 µM	283	394	162	231							
COc1cc(C=O)cc(O)c1O	> 100	> 100	> 100	> 100	> 100	> 100	> 100 µM	> 100 µM	> 100 µM	> 100	> 100	> 100	> 100							
O=C1c2ccccc2C(=O)N1CC(CN1C(=O)c2ccccc2C1=O)(C(=O)OCc1ccccc1)C(=O)OCc1ccccc1	> 100	> 100	> 100	> 100	> 100	> 100	> 100 µM		> 100 µM	> 100	> 100	> 100	> 100							
O=c1c([OH2+])c(-c2ccc(O)cc2[O-])oc2cc(O)cc([O-])c12.O=c1c([OH2+])c(-c2ccc(O)cc2[O-])oc2cc(O)cc([O-])c12.[Ti+4]	> 100	> 100	> 100	> 100	> 100	> 100	> 100 µM	> 100 µM	> 100 µM	> 100	> 100	> 100	> 100							
COc1cccc2c1C(=O)c1c(O)c3c(c(O)c1C2=O)C[C@@](O)(C(=O)CO)CC3OC1CC(NCCCC(OC(C)=O)OC(C)=O)C(O)C(C)O1 (some centres not stated)		0.00787	0.000187	0.00461	> 1	> 1	0.00346 µM and 0.000412 µM	0.00618 µM and 0.00119 µM	0.00403 µM and 0.000406 µM	0.0119	0.00579	0.00427	0.0058	< 0.0001	0.000754	< 0.0001	< 0.0001	0.000305	< 0.0001	< 0.0001
CCOC(=O)C(=O)NC12CC3CC(CC(C3)C1)C2	> 100	> 100	> 100	> 100	> 100	> 100	> 100 µM	> 100 µM	> 100 µM	> 100	> 100	> 100	> 100							

— PubChem BioAssay (NCI)
